For experiment [1], the target named is Recombinant human CSF1R kinase (Homo sapiens (Human), UniProt P07333). It counts as biochemical. To be noted: Z-LYTE Tyr 1 peptide substrate.
Experiment [2] concerns the target CSF1R phosphorylation in THP-1 cells (Homo sapiens (Human), UniProt P07333). Description: Detection of CSF1R phosphorylation activity at cell level (THP-1, M-CSF stimulated, ELISA). It counts as cell-based. Conditions: p-CSF1R ELISA, compound 60 min, 300 ng/mL M-CSF 1 min. The method in brief: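 THP-1 cells (5×10^4/well, RPMI 1640, 2% FBS) were pre-treated with compound for 60 min at 37 °C, then stimulated with 300 ng/mL M-CSF for 1 min and lysed. Phospho-CSF1R was read by sandwich ELISA (p-CSF1R capture, anti-phosphotyrosine-HRP detection, OD 450/570 nm). IC50 was fitted with cell-free wells as background.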
A general note: ELISA stands for enzyme-linked immunosorbent assay.

The test system of experiment [3] is Ba/F3^BCR-FMS-11 cells. Description: Cell proliferation experiment (Ba/F3^BCR-FMS-11, cckit-8). It counts as cell-based, mouse. To be noted: Mus musculus, Ba/F3^BCR-FMS-11 cell proliferation. The essentials: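 Ba/F3 cells stably expressing BCR-FMS, CSF-1R-dependent for growth, seeded at 5000/well in RPMI 1640 with 10% FBS and exposed to 8 compound concentrations for 72 h at 37 °C.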

The results in this text go back to patent publication US12435062B2, “Amide compounds and uses thereof” (HUTCHISON MEDIPHARMA LIMITED, priority 2020, dated 2025).

Chain of Recombinant human CSF1R kinase (P07333 20-972): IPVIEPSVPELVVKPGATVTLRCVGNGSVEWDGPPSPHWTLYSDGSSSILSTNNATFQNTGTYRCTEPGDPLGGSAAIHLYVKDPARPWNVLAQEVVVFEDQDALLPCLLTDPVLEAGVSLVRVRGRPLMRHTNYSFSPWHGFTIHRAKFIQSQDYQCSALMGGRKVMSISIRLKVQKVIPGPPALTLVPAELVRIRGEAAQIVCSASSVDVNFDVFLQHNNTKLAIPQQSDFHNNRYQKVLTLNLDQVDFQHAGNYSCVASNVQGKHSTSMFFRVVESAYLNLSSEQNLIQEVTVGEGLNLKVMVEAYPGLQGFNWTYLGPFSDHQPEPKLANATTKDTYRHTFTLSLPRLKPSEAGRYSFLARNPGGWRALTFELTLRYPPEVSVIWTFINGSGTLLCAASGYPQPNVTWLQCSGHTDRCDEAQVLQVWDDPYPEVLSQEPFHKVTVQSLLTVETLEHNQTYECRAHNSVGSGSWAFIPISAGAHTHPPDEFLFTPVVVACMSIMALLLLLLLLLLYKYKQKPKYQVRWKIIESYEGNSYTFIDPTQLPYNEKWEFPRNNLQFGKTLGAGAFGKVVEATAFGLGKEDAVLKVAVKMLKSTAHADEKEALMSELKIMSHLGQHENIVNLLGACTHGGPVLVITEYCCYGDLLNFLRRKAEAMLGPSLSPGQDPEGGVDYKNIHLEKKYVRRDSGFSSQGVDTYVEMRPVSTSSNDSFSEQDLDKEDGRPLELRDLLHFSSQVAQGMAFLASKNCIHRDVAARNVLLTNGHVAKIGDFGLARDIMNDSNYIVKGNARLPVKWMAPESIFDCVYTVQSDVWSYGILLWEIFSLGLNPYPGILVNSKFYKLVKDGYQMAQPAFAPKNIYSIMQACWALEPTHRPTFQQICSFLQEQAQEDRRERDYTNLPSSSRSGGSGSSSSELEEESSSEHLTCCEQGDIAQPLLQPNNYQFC
Chain of CSF1R phosphorylation in THP-1 cells (P07333 20-972): as above

On to `Cn1cnc(-c2cc(Oc3ccc(NC(=O)c4cccn(C)c4=O)nc3)ccn2)c1` [Compound 107, 1-methyl-N-(5-((2-(1-methyl-1H-imidazol-4-yl)pyridin-4-yl)oxy)pyridin-2-yl)-2-oxo-1,2-dihydropyridine-3-carboxamide], for which the IC50 (commonly the concentration that gives 50% inhibition) in experiment [1] came to 9 nM; in experiment [2] it was 17 nM; in experiment [3] (72 h), 35 nM.

As for `CC(C)n1cccc(C(=O)Nc2ncc(Oc3ccnc(-c4cnn(C)c4)c3)cc2F)c1=O` [Compound 108], the IC50 in experiment [1] came out at 11 nM; in experiment [2] it was 24 nM; in experiment [3] (72 h) it was 12 nM.

On to `Cc1cc(Nc2cc(Oc3ccc(NC(=O)c4cnc(C)n(C)c4=O)nc3)ccn2)n[nH]1` [Compound 111, 1,2-dimethyl-N-(5-((2-((5-methyl-1H-pyrazol-3-yl)amino)pyridin-4-yl)oxy)pyridin-2-yl)-6-oxo-1,6-dihydropyrimidine-5-carboxamide], for which the IC50 in experiment [1] amounted to 19 nM; in experiment [2] it was 10 nM; in experiment [3] (72 h) it was 8 nM.

On to `Cc1cc(Nc2cc(Oc3ccc(NC(=O)c4cccn(C)c4=O)nc3)ccn2)n[nH]1` [Compound 112], for which the IC50 in experiment [1] came out at 19 nM; in experiment [2], 10 nM; in experiment [3] (72 h) it was 22 nM.

For `Cc1ncc(C(=O)Nc2ccc(Oc3ccnc(-c4cnn(CCO)c4)c3)cn2)c(=O)n1C` [Compound 113, N-(5-((2-(1-(2-hydroxyethyl)-1H-pyrazol-4-yl)pyridin-4-yl)oxy)pyridin-2-yl)-1,2-dimethyl-6-oxo-1,6-dihydropyrimidine-5-carboxamide], the IC50 stood at 34 nM in experiment [1], 17 nM in experiment [2] and 48 nM in experiment [3] (72 h).

Take `Cc1ncc(-c2cc(Oc3ccc(NC(=O)c4cccn(C)c4=O)nc3)ccn2)s1` [Compound 114]: the IC50 turned out to be 42 nM in experiment [1], 35 nM in experiment [2] and 79 nM in experiment [3] (72 h).

As for `Cc1ccc(-c2cc(Oc3ccc(NC(=O)c4cccn(C)c4=O)nc3)ccn2)cn1` [Compound 115], the values for the IC50 in experiment [1], in experiment [2] and in experiment [3] (72 h) were 46 nM, 22 nM and 38 nM, respectively.

Regarding `Cc1ncc(C(=O)Nc2ccc(Oc3ccnc(-c4cccs4)c3)cn2)c(=O)n1C` [Compound 116], the IC50 in experiment [1] is 105 nM; in experiment [2] it was 21 nM; in experiment [3] (72 h), 201 nM.

With `Cc1ncc(C(=O)Nc2ccc(Oc3ccnc(-c4ccn(C)c4)c3)cn2)c(=O)n1C` [Compound 117, 1,2-dimethyl-N-(5-((2-(1-methyl-1H-pyrrol-3-yl)pyridin-4-yl)oxy)pyridin-2-yl)-6-oxo-1,6-dihydropyrimidine-5-carboxamide], the IC50 in experiment [1] was found to be 7 nM; in experiment [2], 8 nM; in experiment [3] (72 h), 9 nM.

With `Cc1cc(C(=O)Nc2ccc(Oc3ccnc(-c4cnn(C)c4)c3)cn2)c(=O)n(C)c1` [Compound 118], the IC50 in experiment [1] was found to be 19 nM; in experiment [2], 21 nM; in experiment [3] (72 h), 6 nM.

`Cc1nc(-c2cc(Oc3ccc(NC(=O)c4cnc(C)n(C)c4=O)nc3)ccn2)cs1` [Compound 120]: the IC50 in experiment [1] was 52 nM; in experiment [2], 21 nM; in experiment [3] (72 h), 39 nM.

For the compound `Cc1ncc(C(=O)Nc2ccc(Cc3ccnc(-c4cnn(C)c4)c3)cn2)c(=O)n1C` [Compound 123, 1,2-dimethyl-N-(5-((2-(1-methyl-1H-pyrazol-4-yl)pyridin-4-yl)methyl)pyridin-2-yl)-6-oxo-1,6-dihydropyrimidine-5-carboxamide], the IC50 in experiment [1] amounted to 19 nM; in experiment [2] it was 16 nM; in experiment [3] (72 h), 25 nM.

As for `Cc1cc(C(=O)Nc2ccc(Oc3ccnc(-c4ccn(C)c4)c3)cn2)c(=O)n(C)c1` [Compound 124], the IC50 in experiment [1] is 16 nM; in experiment [2], 19 nM; in experiment [3] (72 h), 11 nM.

Regarding `CC(C)n1cccc(C(=O)Nc2ccc(Oc3ccnc(-c4ccn(C)c4)c3)cn2)c1=O` [Compound 125], the figures for the concentration for half-maximal inhibition (IC50) in experiment [1], in experiment [2] and in experiment [3] (72 h) were 7 nM, 24 nM and 17 nM, respectively.

For the compound `CC(C)n1nccc(C(=O)Nc2ccc(Oc3ccnc(-c4ccn(C)c4)c3)cn2)c1=O` [Compound 126], the IC50 in experiment [1] was found to be 25 nM; in experiment [2], 30 nM; in experiment [3] (72 h), 28 nM.

Take `[2H]C([2H])([2H])n1c(C)ncc(C(=O)Nc2ccc(Oc3ccnc(-c4cnn(C)c4)c3)cn2)c1=O` [Compound 128, 2-methyl-1-(methyl-d3)-N-(5-((2-(1-methyl-1H-pyrazol-4-yl)pyridin-4-yl)oxy)pyridin-2-yl)-6-oxo-1,6-dihydropyrimidine-5-carboxamide]: the results for the IC50 in experiment [1], in experiment [2] and in experiment [3] (72 hours) were 5 nM, 6 nM and 2 nM, respectively.

With `[2H]C([2H])([2H])n1cc(-c2cc(Oc3ccc(NC(=O)c4cnc(C)n(C)c4=O)nc3)ccn2)cn1` [Compound 129, 1,2-dimethyl-N-(5-((2-(1-(methyl-d3)-1H-pyrazol-4-yl)pyridin-4-yl)oxy)pyridin-2-yl)-6-oxo-1,6-dihydropyrimidine-5-carboxamide], the values for the IC50 in experiment [1], in experiment [2] and in experiment [3] (72 hours) were 4 nM, 7 nM and 2 nM, respectively.

For `Cc1ncc(C(=O)Nc2ccc(Oc3ccnc(-c4cn[nH]c4)c3)cn2)c(=O)n1C` [Compound 130, N-(5-((2-(1H-pyrazol-4-yl)pyridin-4-yl)oxy)pyridin-2-yl)-1,2-dimethyl-6-oxo-1,6-dihydropyrimidine-5-carboxamide], the IC50 worked out at 21 nM in experiment [1], 7 nM in experiment [2] and 15 nM in experiment [3] (72 h).

For `Cc1ncc(C(=O)Nc2ccc(Oc3ccnc(-c4cnn(C)c4)c3)cn2)c(=O)[nH]1` [Compound 131, 2-methyl-N-(5-((2-(1-methyl-1H-pyrazol-4-yl)pyridin-4-yl)oxy)pyridin-2-yl)-6-oxo-1,6-dihydropyrimidine-5-carboxamide], the IC50 in experiment [1] came to 76 nM; in experiment [2] it was 56 nM; in experiment [3] (72 h), 396 nM.

As for `Cn1cc(-c2cc(Oc3ccc(NC(=O)c4cnc(CCO)[nH]c4=O)nc3)ccn2)cn1` [Compound 132, 2-(2-hydroxyethyl)-N-(5-((2-(1-methyl-1H-pyrazol-4-yl)pyridin-4-yl)oxy)pyridin-2-yl)-6-oxo-1,6-dihydropyrimidine-5-carboxamide], the half-inhibitory concentration (IC50) in experiment [1] is 198 nM; in experiment [2], 2110 nM; in experiment [3] (72 h) it was 1190 nM.

Turning to `Cn1cc(-c2cc(Oc3ccc(NC(=O)c4cnc(CO)[nH]c4=O)nc3)ccn2)cn1` [Compound 133, 2-(hydroxymethyl)-N-(5-((2-(1-methyl-1H-pyrazol-4-yl)pyridin-4-yl)oxy)pyridin-2-yl)-6-oxo-1,6-dihydropyrimidine-5-carboxamide], the IC50 was 548 nM in experiment [1], above 3000 nM in experiment [2] and above 3300 nM in experiment [3] (72 h).
